Reference: patent US20260327655A1, “SMALL-MOLECULE REGULATED ALTERNATIVE SPLICING” (priority 2023, published 2026)

Assays:
[1] = test system: RS1-10, HEK-293T cells; assay: RS1-10 performance in HEK-293T cells; assay type: cell-based, human; conditions: CMV promoter, 18 hours, FIG. 10A
Procedure: (§1) Human cell line HEK-293T cells or NIH-3T3 mouse fibroblast cell line cells were cultured in DMEM+10% FBS, collected after trypsinization, and then dispensed into 96-well plates (cell culture-treated). Each well of the plate was seeded with 1.0×10^5 cells in 100 μL culture medium. After a 1-hour incubation in the tissue culture incubator (5% CO2, 37 degrees C.), plasmid DNA was complexed with a transfection reagent, such as Lipofectamine 3000, and added to respective wells on the plate. Each well received an equivalent of 100 ng of plasmid DNA complexed with 0.15 μL Lipofectamine 3000. Triplicate wells were used for each condition tested in the experiment. The plasmid utilized in the experiments for HEK-293T cells and NIH-3T3 mouse fibroblast cells encoded a CMV promoter upstream of the RS1-10 construct that controlled the expression of a Firefly Luciferase gene followed by a SV40 polyadenylation signal. After a 10-minute incubation at room temperature, either DMSO vehicle or 24 A at specified doses was added to the wells of the plate. Plates were then incubated for 18 hours in a tissue culture incubator. Endpoint analysis was performed by adding 100 uL of a Luciferase substrate, such as Steady-Luc Firefly Luciferase substrate, to each well of the assay plate. […] Finally, the luminescent signal from each well was measured with a plate reader. […]

[2] = test system: RS4-1 and variants; assay: Luciferase induction assay, RS4-1 and variants in HEK-293T cells; assay type: cell-based, human; conditions: 18 hours, FIGS. 15A, 15B
Procedure: HEK-293T cells were cultured in DMEM+10% FBS, collected after trypsinization, and dispensed into 96-well plates (cell culture-treated). Each well of the plate was seeded with 1.0×10^5 cells in 100 μL culture medium. After a 1-hour incubation in the tissue culture incubator (5% CO2, 37° C.), plasmid DNA was complexed with a transfection reagent, such as Lipofectamine 3000, and added to respective wells on the plate. Each well received 100 ng of plasmid DNA complexed with 0.15 μL Lipofectamine 3000. The plasmids utilized in the experiment encoded a CMV promoter upstream of the RS4-1 construct and variants that controlled the expression of a Firefly Luciferase gene followed by a SV40 polyadenylation signal. After a 10-minute incubation at room temperature, either DMSO vehicle or 24 A at specified doses was added to the wells of the plate. Plates were then incubated for 18 hours in a tissue culture incubator. Endpoint analysis was performed by adding 100 uL of a Luciferase substrate, such as Steady-Luc Firefly Luciferase substrate, to each well of the assay plate. The liquid contents of each was transferred to a 96-well plate, mixed again for 2 min on an orbital shaker, and incubated at room temperature for 5 min. Finally, the luminescent signal from each well was measured with a plate reader. […]

[3] = test system: RS1-10 minigene (Firefly Luciferase), HEK-293T cells; assay: Luciferase induction assay, RS1-10 with splice modulator compounds in HEK-293T cells; assay type: cell-based; conditions: Homo sapiens, 18 hours, n of 3, read-out: Mean fold-induction of luciferase (relative to vehicle control)
[4] = test system: RS1-10; assay: Dose-response profiling assay, RS1-10 Flp-In-293 cell line; assay type: cell-based; conditions: 18 hours, FIGS. 9D-9F
Procedure: Single-copy insertion of an switch construct and subsequent cell-line generation was performed in Flp-In-293 cells according to manufacturer's protocols. The RS1-10 sequence fused to a Firefly Luciferase gene was cloned into a Flp-In compatible pcDNA5/FRT expression vector with a CMV promoter and BGH polyadenylation signal. Resulting Flp-In cell line carried a single-copy expression cassette (RSwitch-controlled) integrated into the genome. The RS1-10 Flp-In cell line was cultured in DMEM+10% FBS, collected after trypsinization, and then dispensed into 96-well plates (cell culture-treated). Each well of the plate was seeded with 1.0×10^5 cells in 100 μL culture medium. Subsequently, either DMSO vehicle or a splice modulator compound at specified doses was added to the wells of the plate. Triplicate wells were used for each condition tested in the experiment. Plates were then incubated for 18 hours in a tissue culture incubator (5% CO2, 37° C.). Endpoint analysis was performed by adding 100 uL of a Luciferase substrate, such as Steady-Luc Firefly Luciferase substrate, to each well of the assay plate. The liquid contents of each was transferred to a 96-well plate, mixed again for 2 min on an orbital shaker, and incubated at room temperature for 5 min. Finally, the luminescent signal from each well was measured with a plate reader. Each plotted data point on a graph in a figure represents a mean of 3 wells+/−standard deviation normalized to vehicle controls. A nonlinear regression curve fit of the plotted data points was generated in graphing software.

[5] = test system: RS1-10, NIH-3T3 cells; assay: RS1-10 performance in NIH-3T3 cells; assay type: cell-based, mouse; conditions: CMV promoter, 18 hours, FIG. 10B
Procedure: as §1

SMILES: CCN1CC(c2ccc(-c3ccc(-c4ccc5nn(C)cc5c4)cc3O)nn2)C1 [Compound 24A, 2-[6-(1-ethylazetidin-3-yl)pyridazin-3-yl]-5-(2-methyl-2H-indazol-5-yl)phenol]
- fold-induction of luciferase [1]: increasing fold-induction of luciferase with increasing concentrations of 24 A
- fold-induction of luciferase [2]: increasing fold-induction of luciferase with increasing concentrations
- fold induction at 0.1 µM ([3]; RS1-10, 100 nM): 74.1
- fold induction at 1 µM ([3]; RS1-10, 1,000 nM): 84
- fold-induction of luciferase signal, dose response [4]: increase in fold-induction of luciferase signal with increasing concentrations
- fold-induction of luciferase [5]: increasing fold-induction of luciferase with increasing concentrations of 24 A
